Data reported in patent US9434684B2, “Oxime-substituted amide compound and pest control agent” (Nissan Chemical Industries, Ltd., priority 2012, dated 2016).

Tests used:
[1] = tested on: Meloidogyne incognita; experiment: Preventive effect on Meloidogyne incognita (garden balsam seedlings, root knot); assay type: in vivo; conditions: 504 h, test solution B 100 ppm, 1 ml per seedling, 3 weeks, read-out: efficacy (damage degree, root knot, relative to non-treated plot)
Method: Compounds of the present invention were dissolved in dimethylsulfoxide to prepare 1% solutions. Then, distilled water was added to dilute the solutions to the predetermined concentration (100 ppm), and the obtained solutions were used in the following Test Examples 8 to 12. 1 ml per seedling of test solutions B of the compounds of the present invention were treated to the bases of garden balsam seedlings (about 2 weeks after budding) planted in a cell tray of which each cell was filled with 10 g of soil. 1 Hour after the application, 1 ml per cell of water containing Meloidogyne incognita 2 L larvae (100 2 L larvae/1 ml) was applied to the bases. The tray was placed in a greenhouse for 3 weeks, and the root knot level formed on the root was determined in accordance with the following damage index and the damage degree to calculate the efficacy (%) relative to the non-treated plot in accordance with the following formula. <Damage Index> 0: No knot observed. 1: Knot observed on a part of the root system. 2: Knot observed on the entire root system. 3: Large knot observed. 4: Large knot observed on the entire root system. [Damage degree]=[Σ(damage index×number of seedlings at each index)/(4×number of seedlings investigated)]×100 Efficacy(%)=[1−(damage degree in treated plot/damage degree in non-treated plot)]×100

[2] = tested on: Puccinia recondita; experiment: Preventive effect against wheat brown leaf rust; assay type: in vivo; conditions: 216 h, test solution A 500 ppm, 1 + 8 days
Method: (§1) Compounds of the present invention were dissolved in a solvent for emulsion (a mixture of Sorpol (registered trademark) 3005XL (manufactured by Toho Chemical Industry Co., Ltd.): N-methylpyrrolidone:Solvesso (registered trademark) 200 (manufactured by ExxonMobil Chemical) in a ratio of 1:5:2) to prepare 20% emulsifiable concentrates. Then, distilled water was added to dilute the emulsifiable concentrates to the predetermined concentration (500 ppm), and the obtained solutions were used in the following Test Examples 1 to 7. To wheat (cultivar: Norin-61-go) in 1.3-leaf stage planted in 90 cm^3 plastic pots, 5 ml per pot of test solutions A of the compounds of the present invention were applied. On the next day, a suspension of spore of Puccinia recondita was spray-inoculated to the wheat, and the pots were placed in an inoculation chamber at 20° C. under a humidity of 100% for 1 day. Then, the pots were placed in an air-conditioned greenhouse (20° C.) for 8 days. The proportion of the formed lesion in the inoculated leaves was measured to calculate the control value in accordance with the same formula as in Test Example 1. Here, the test was carried out in duplicate.

[3] = tested on: Phaeosphaeria nodorum (synonym: Septoria nodorum); experiment: Preventive effect against wheat glume blotch; assay type: in vivo; conditions: Parastagonospora nodorum, 192 h, test solution A 500 ppm, 2 + 6 days
Method: as §1, with “Haruyutaka)” for “Norin-61-go)”, “conidium” for “spore”, “Phaeosphaeria nodorum synonym: Septoria nodorum)” for “Puccinia recondita”, “2 days.” for “1 day.”, “6” for “8”

[4] = tested on: Botrytis cinerea; experiment: Preventive effect against cucumber gray mold (mycelium inoculation); assay type: in vivo; conditions: 48 h, test solution A 500 ppm, 2 days
Method: Compounds of the present invention were dissolved in a solvent for emulsion (a mixture of Sorpol (registered trademark) 3005XL (manufactured by Toho Chemical Industry Co., Ltd.): N-methylpyrrolidone:Solvesso (registered trademark) 200 (manufactured by ExxonMobil Chemical) in a ratio of 1:5:2) to prepare 20% emulsifiable concentrates. Then, distilled water was added to dilute the emulsifiable concentrates to the predetermined concentration (500 ppm), and the obtained solutions were used in the following Test Examples 1 to 7. Cucumber (cultivar: Sagami Hanjiro) was planted in 90 cm^3 plastic pots, and in the seed leaf stage, 5 ml per pot of test solutions A of the compounds of the present invention were applied. On the next day, the pots were put in a plastic container, and agar blocks (diameter: 5 mm) containing Botrytis cinerea preliminarily cultivated in a PDA medium were inoculated to the seed leaves of the cucumber treated with the solutions. After the inoculation, the plastic container was covered with a plastic sheet and humidified, and placed at 20° C. for 2 days, whereupon the proportion of the formed lesion in the inoculated leaves was measured to calculate the control value in accordance with the same formula as in Test Example 1. Here, the test was carried out in duplicate.

Compound | pest or weed control at 100 µg/mL [1] [%] | melting point [°C] | also measured
CC(ON=C(CNC(=O)c1ccccc1C(F)(F)F)c1ncc(Cl)cc1Cl)c1ccc(F)cc1 (stereo not drawn) [Compound No. 2-173, N-[2-(3,5-dichloropyridin-2-yl)-2-[1-(4-fluorophenyl)ethoxyimino]ethyl]-2-(trifluoromethyl)benzamide] | ≥ 50 | – | –
CC(C)ON=C(CNC(=O)c1ccccc1C(F)(F)F)c1ncc(C#CC(C)(C)C)cc1Cl [Compound No. 2-248, N-[2-[3-chloro-5-(3,3-dimethyl-1-butynyl)pyridin-2-yl]-2-(isopropoxyimino)ethyl]-2-(trifluoromethyl)benzamide] | – | – | pest or weed control at 500 µg/mL [2]: ≥ 70%
CC(C)(C)ON=C(CNC(=O)c1ccccc1C(F)(F)F)c1ncc(Cl)cc1Cl [2-139, N-[2-(3,5-dichloropyridin-2-yl)-2-(tert-butoxyimino)ethyl]-2-(trifluoromethyl)benzamide] | – | – | pest or weed control at 500 µg/mL [3]: ≥ 70%
O=C(NC/C(=N/OCC(F)(F)F)c1ncc(Cl)cc1Cl)c1ccccc1C(F)(F)F [2-212, (Z)—N-[2-(3,5-dichloropyridin-2-yl)-2-(2,2,2-trifluoroethoxyimino)ethyl]-2-(trifluoromethyl)benzamide] | ≥ 50 | 100 to 102 | –
CC(C)O/N=C(\CNC(=O)c1ccccc1C(F)(F)F)c1ncc(Cl)cc1Cl [Compound No. 2-239, (E)-N-[2-(3,5-dichloropyridin-2-yl)-2-(isopropoxyimino)ethyl]-2-(trifluoromethyl)benzamide] | – | 54 to 57 | –
CON=C(CNC(=O)c1ccccc1C(F)(F)F)c1ncc(OCC(F)(F)F)cc1Cl [Compound No. 2-223, N-[2-[3-chloro-5-(2,2,2-trifluoroethoxy)pyridin-2-yl]-2-(methoxyimino)ethyl]-2-(trifluoromethyl)benzamide] | – | – | pest or weed control at 500 µg/mL [4]: ≥ 70%
CCON=C(CNC(=O)c1cn(C)nc1C(F)F)c1ncc(Cl)cc1Cl [Compound No. 17-004, N-[2-(3,5-dichloropyridin-2-yl)-2-(ethoxyimino)ethyl]-3-difluoromethyl-1-methyl-1H-pyrazole-4-carboxamide] | – | – | pest or weed control at 500 µg/mL [3]: ≥ 70%
O=C(NC/C(=N\OCC1CC1)c1ncc(C(F)(F)F)cc1Cl)c1ccccc1C(F)(F)F [Compound No. 2-023, (E)-N-[2-[3-chloro-5-(trifluoromethyl)pyridin-2-yl]-2-(cyclopropylmethoxyimino)ethyl]-2-(trifluoromethyl)benzamide] | – | 98 to 101 | –
CC(C)O/N=C(/CNC(=O)c1ccccc1C(F)(F)F)c1ncc(Cl)cc1Cl [Compound No. 2-128, (Z)—N-[2-(3,5-dichloropyridin-2-yl)-2-(isopropoxyimino)ethyl]-2-(trifluoromethyl)benzamide] | ≥ 50 | 107 to 108 | –
CCO/N=C(/CNC(=O)c1ccccc1C(F)(F)F)c1ncc(C(F)(F)F)cc1Cl [Compound No. 2-185, (Z)—N-[2-[3-chloro-5-(trifluoromethyl)pyridin-2-yl]-2-(ethoxyimino)ethyl]-2-(trifluoromethyl)benzamide] | – | 60 to 62 | –
O=C(NC/C(=N/OCC1CC1)c1ncc(C(F)(F)F)cc1Cl)c1ccccc1C(F)(F)F [Compound No. 2-024, (Z)—N-[2-[3-chloro-5-(trifluoromethyl)pyridin-2-yl]-2-(cyclopropylmethoxyimino)ethyl]-2-(trifluoromethyl)benzamide] | ≥ 50 | 73 to 74 | –
CCC(C)ON=C(CNC(=O)c1ccccc1C(F)(F)F)c1ncc(Cl)cc1Cl (stereo not drawn) [Compound No. 2-009, N-[2-(3,5-dichloropyridin-2-yl)-2-(sec-butoxyimino)ethyl]-2-(trifluoromethyl)benzamide] | ≥ 50 | – | –
CC(C)O/N=C(\CNC(=O)c1ccccc1C(F)(F)F)c1ncc(C(F)(F)F)cc1Cl [Compound No. 2-019, (E)-N-[2-[3-chloro-5-(trifluoromethyl)pyridin-2-yl]-2-(isopropoxyimino)ethyl]-2-(trifluoromethyl)benzamide] | – | 81 to 83 | –
CC(O/N=C(/CNC(=O)c1ccccc1C(F)(F)F)c1ncc(Cl)cc1Cl)c1ccc(F)cc1 (stereo not drawn) [Compound No. 2-174, (Z)—N-[2-(3,5-dichloropyridin-2-yl)-2-[1-(4-fluorophenyl)ethoxyimino]ethyl]-2-(trifluoromethyl)benzamide] | ≥ 50 | – | pest or weed control at 500 µg/mL [2]: ≥ 70%
CCC(C)O/N=C(/CNC(=O)c1ccccc1C(F)(F)F)c1ncc(Cl)cc1Cl (stereo not drawn) [2-136, (Z)—N-[2-(3,5-dichloropyridin-2-yl)-2-(sec-butoxyimino)ethyl]-2-(trifluoromethyl)benzamide] | – | 68 to 70 | pest or weed control at 500 µg/mL [2]: ≥ 70%
CO/N=C(/CNC(=O)c1ccccc1C(F)(F)F)c1ncc(Br)cc1Cl [Compound No. 2-216, (Z)—N-[2-(5-bromo-3-chloropyridin-2-yl)-2-(methoxyimino)ethyl]-2-(trifluoromethyl)benzamide] | ≥ 50 | 85 to 86 | pest or weed control at 500 µg/mL [3]: ≥ 70%
CO/N=C(\CNC(=O)c1ccccc1C(F)(F)F)c1ccc(Cl)cc1Cl [Compound No. 1-004, (Z)—N-[2-(2,4-dichlorophenyl)-2-(methoxyimino)ethyl]-2-(trifluoromethyl)benzamide] | – | 146 to 148 | –
CON=C(CNC(=O)c1ccccc1C(F)(F)F)c1ncc(OC)cc1Cl [2-083, N-[2-(3-chloro-5-methoxypyridin-2-yl)-2-(methoxyimino)ethyl]-2-(trifluoromethyl)benzamide] | – | – | pest or weed control at 500 µg/mL [4]: ≥ 70%
CC(C)ON=C(CNC(=O)c1ccccc1C(F)(F)F)c1ncc(Cl)cc1Cl [Compound No. 2-005, N-[2-(3,5-dichloropyridin-2-yl)-2-(isopropoxyimino)ethyl]-2-(trifluoromethyl)benzamide] | – | – | pest or weed control at 500 µg/mL [2]: ≥ 70%
CON=C(CN(C(=O)c1ccccc1C(F)(F)F)C1CC1)c1ncc(Cl)cc1Cl [4-007] | – | 75 to 77 | –
CC(C)O/N=C(\c1ncc(Cl)cc1Cl)[C@H](C)NC(=O)c1ccccc1C(F)(F)F [Compound No. 2-132, (S)—N-[2-(3,5-dichloropyridin-2-yl)-2-(Z)-(isopropoxyimino)-1-methylethyl]-2-(trifluoromethyl)benzamide] | – | – | pest or weed control at 500 µg/mL [3]: ≥ 70%
CC(C)ON=C(CNC(=O)c1ccccc1C(F)(F)F)c1ncc(Br)cc1Cl [Compound No. 2-181, N-[2-(5-bromo-3-chloropyridin-2-yl)-2-(isopropoxyimino)ethyl]-2-(trifluoromethyl)benzamide] | ≥ 50 | – | pest or weed control at 500 µg/mL [3]: ≥ 70%
